Measurements taken from the NIST ThermoML archive (doi:10.1016/j.jct.2011.08.016).
± gives the expanded uncertainty stated by the source.

Assay: xn = mol fraction of the nth substance listed
Conditions: Liquid, Vibrating tube method

CCCCCCCCCC [decane] + CCCCCCCC
Conditions | mass density [kg/m3]
313.14 K, 1000 kPa, x2 = 0.0616 | 714.37 ± 0.41
313.14 K, 2000 kPa, x2 = 0.0616 | 715.15 ± 0.41
313.14 K, 3000 kPa, x2 = 0.0616 | 716 ± 0.42
313.14 K, 4000 kPa, x2 = 0.0616 | 716.89 ± 0.42
313.14 K, 5000 kPa, x2 = 0.0616 | 717.71 ± 0.43
313.14 K, 6000 kPa, x2 = 0.0616 | 718.51 ± 0.43
313.14 K, 7000 kPa, x2 = 0.0616 | 719.36 ± 0.43
313.14 K, 8000 kPa, x2 = 0.0616 | 720.16 ± 0.44
313.14 K, 9000 kPa, x2 = 0.0616 | 720.97 ± 0.44
313.14 K, 10000 kPa, x2 = 0.0616 | 721.75 ± 0.45
313.14 K, 10990 kPa, x2 = 0.0616 | 722.52 ± 0.45
313.14 K, 12000 kPa, x2 = 0.0616 | 723.27 ± 0.46
313.14 K, 13000 kPa, x2 = 0.0616 | 724.05 ± 0.46
313.14 K, 14000 kPa, x2 = 0.0616 | 724.81 ± 0.47
313.14 K, 15000 kPa, x2 = 0.0616 | 725.5 ± 0.47
313.14 K, 16000 kPa, x2 = 0.0616 | 726.26 ± 0.48
313.14 K, 17000 kPa, x2 = 0.0616 | 726.99 ± 0.48
313.14 K, 18000 kPa, x2 = 0.0616 | 727.69 ± 0.49
313.14 K, 19000 kPa, x2 = 0.0616 | 728.37 ± 0.5
313.14 K, 20000 kPa, x2 = 0.0616 | 729.06 ± 0.5
313.14 K, 21000 kPa, x2 = 0.0616 | 729.73 ± 0.51
313.14 K, 22000 kPa, x2 = 0.0616 | 730.38 ± 0.51
313.14 K, 23000 kPa, x2 = 0.0616 | 731.03 ± 0.52
313.14 K, 24000 kPa, x2 = 0.0616 | 731.6 ± 0.53
313.14 K, 25000 kPa, x2 = 0.0616 | 732.22 ± 0.53
313.17 K, 1000 kPa, x2 = 0.2801 | 709.26 ± 0.41
313.17 K, 1000 kPa, x2 = 0.9623 | 688.85 ± 0.42
313.17 K, 2000 kPa, x2 = 0.2801 | 710.07 ± 0.42
313.17 K, 2000 kPa, x2 = 0.9623 | 689.77 ± 0.42
313.17 K, 3000 kPa, x2 = 0.2801 | 710.9 ± 0.42
313.17 K, 3000 kPa, x2 = 0.9623 | 690.64 ± 0.43
313.17 K, 4000 kPa, x2 = 0.2801 | 711.79 ± 0.42
313.17 K, 4000 kPa, x2 = 0.9623 | 691.53 ± 0.43
313.17 K, 5000 kPa, x2 = 0.2801 | 712.65 ± 0.43
313.17 K, 5000 kPa, x2 = 0.9623 | 692.37 ± 0.44
313.17 K, 6000 kPa, x2 = 0.2801 | 713.47 ± 0.43
313.17 K, 6000 kPa, x2 = 0.9623 | 693.31 ± 0.44
313.17 K, 7000 kPa, x2 = 0.2801 | 714.32 ± 0.44
313.17 K, 7000 kPa, x2 = 0.9623 | 694.24 ± 0.45
313.17 K, 8000 kPa, x2 = 0.2801 | 715.17 ± 0.44
313.17 K, 8000 kPa, x2 = 0.9623 | 695.11 ± 0.45
313.17 K, 9000 kPa, x2 = 0.2801 | 715.99 ± 0.45
313.17 K, 9000 kPa, x2 = 0.9623 | 696.04 ± 0.46
313.17 K, 10000 kPa, x2 = 0.2801 | 716.81 ± 0.45
313.17 K, 10000 kPa, x2 = 0.9623 | 696.93 ± 0.47
313.17 K, 10990 kPa, x2 = 0.2801 | 717.63 ± 0.46
313.17 K, 10990 kPa, x2 = 0.9623 | 697.85 ± 0.47
313.17 K, 12000 kPa, x2 = 0.2801 | 718.42 ± 0.46
313.17 K, 12000 kPa, x2 = 0.9623 | 698.72 ± 0.48
313.17 K, 13000 kPa, x2 = 0.2801 | 719.2 ± 0.47
313.17 K, 13000 kPa, x2 = 0.9623 | 699.57 ± 0.48
313.17 K, 14000 kPa, x2 = 0.2801 | 719.98 ± 0.47
313.17 K, 14000 kPa, x2 = 0.9623 | 700.45 ± 0.49
313.17 K, 15000 kPa, x2 = 0.2801 | 720.74 ± 0.48
313.17 K, 15000 kPa, x2 = 0.9623 | 701.33 ± 0.49
313.17 K, 16000 kPa, x2 = 0.2801 | 721.5 ± 0.48
313.17 K, 16000 kPa, x2 = 0.9623 | 702.18 ± 0.5
313.17 K, 17000 kPa, x2 = 0.2801 | 722.23 ± 0.49
313.17 K, 17000 kPa, x2 = 0.9623 | 703 ± 0.51
313.17 K, 18000 kPa, x2 = 0.2801 | 723 ± 0.5
313.17 K, 18000 kPa, x2 = 0.9623 | 703.81 ± 0.51
313.17 K, 19000 kPa, x2 = 0.2801 | 723.67 ± 0.5
313.17 K, 19000 kPa, x2 = 0.9623 | 704.6 ± 0.52
313.17 K, 20000 kPa, x2 = 0.2801 | 724.35 ± 0.51
313.17 K, 20000 kPa, x2 = 0.9623 | 705.32 ± 0.53
313.17 K, 21000 kPa, x2 = 0.2801 | 725.02 ± 0.51
313.17 K, 21000 kPa, x2 = 0.9623 | 706.06 ± 0.53
313.17 K, 22000 kPa, x2 = 0.2801 | 725.7 ± 0.52
313.17 K, 22000 kPa, x2 = 0.9623 | 706.8 ± 0.54
313.17 K, 23000 kPa, x2 = 0.2801 | 726.3 ± 0.52
313.17 K, 23000 kPa, x2 = 0.9623 | 707.48 ± 0.55
313.17 K, 24000 kPa, x2 = 0.2801 | 726.9 ± 0.53
313.17 K, 24000 kPa, x2 = 0.9623 | 708.16 ± 0.55
313.17 K, 25000 kPa, x2 = 0.2801 | 727.55 ± 0.54
313.17 K, 25000 kPa, x2 = 0.9623 | 708.78 ± 0.56
313.19 K, 1000 kPa, x2 = 0.5314 | 702.8 ± 0.42
313.19 K, 1000 kPa, x2 = 0.7736 | 695.32 ± 0.42
313.19 K, 2000 kPa, x2 = 0.5314 | 703.69 ± 0.42
313.19 K, 2000 kPa, x2 = 0.7736 | 696.27 ± 0.42
313.19 K, 3000 kPa, x2 = 0.5314 | 704.53 ± 0.42
313.19 K, 3000 kPa, x2 = 0.7736 | 697.14 ± 0.43
313.19 K, 4000 kPa, x2 = 0.5314 | 705.35 ± 0.43
313.19 K, 4000 kPa, x2 = 0.7736 | 698.01 ± 0.43
313.19 K, 5000 kPa, x2 = 0.5314 | 706.16 ± 0.43
313.19 K, 5000 kPa, x2 = 0.7736 | 698.89 ± 0.44
313.19 K, 6000 kPa, x2 = 0.5314 | 707.05 ± 0.44
313.19 K, 6000 kPa, x2 = 0.7736 | 699.8 ± 0.44
313.19 K, 7000 kPa, x2 = 0.5314 | 707.93 ± 0.44
313.19 K, 7000 kPa, x2 = 0.7736 | 700.67 ± 0.44
313.19 K, 8000 kPa, x2 = 0.5314 | 708.77 ± 0.45
313.19 K, 8000 kPa, x2 = 0.7736 | 701.55 ± 0.45
313.19 K, 9000 kPa, x2 = 0.5314 | 709.59 ± 0.45
313.19 K, 9000 kPa, x2 = 0.7736 | 702.44 ± 0.46
